From article PMC8151276, “An Integrated Approach toward NanoBRET Tracers for Analysis of GPCR Ligand Engagement” (Molecules, 2021) come the findings set out here.

For one assay, the target named is T1, GALR3 (Homo sapiens, UniProt O60755).
T1 construct: purchased Promega (in-house HiBiT-GPCR construct library, NanoBRET)
T1 sequence (O60755 1-368): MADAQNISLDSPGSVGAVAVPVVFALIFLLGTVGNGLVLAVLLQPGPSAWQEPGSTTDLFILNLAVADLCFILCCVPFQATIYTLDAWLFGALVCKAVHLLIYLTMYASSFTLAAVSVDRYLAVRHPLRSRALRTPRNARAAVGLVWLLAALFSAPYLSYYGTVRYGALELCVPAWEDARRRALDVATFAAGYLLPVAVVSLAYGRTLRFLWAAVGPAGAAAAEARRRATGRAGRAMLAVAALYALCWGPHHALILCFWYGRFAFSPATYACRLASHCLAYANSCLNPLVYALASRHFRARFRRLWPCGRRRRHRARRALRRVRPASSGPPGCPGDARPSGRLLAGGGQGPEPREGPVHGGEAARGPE
In words: NanoBRET screen HiBiT-GALR3 in HEK293. It is filed as binding. Here is the method:
(§1) Each tracer candidate was screened across the entire library of HiBiT-GPCR constructs using NanoBRET as the detection modality. As depicted in Figure 4A, the specificity of interactions was evaluated through decrease in BRET due to competitive displacement of a bound tracer by excess parental compound. Each tracer was analyzed for binding to each HiBiT-GPCR fusion in the absence and in the presence of competing parental compound. Briefly, HEK293 cells were transfected with HiBiT-GPCR constructs diluted into promoterless DNA to reduce expression and maximize translocation to the cell surface. Each tracer candidate was then screened at concentrations of 1 μM and 0.1 μM across cells expressing these fusions. Cells were treated for 1.5 h with tracer either alone or in the presence of 20 μM competing parental compound (i.e., control). BRET was measured upon addition of purified LgBiT and subsequent complementation with HiBiT genetically fused to a GPCR. The specificity of interactions was assessed through a decrease in BRET signal due to competitive displacement of the bound tracer. To further gauge the robustness of these interactions, the fold response over the control (i.e., BRETtracer/BRETcontrol) was calculated. We chose a 1.5-fold response, which translates to ≥7-fold signal over noise as the minimal threshold required to score an interaction as positive. […]. Below we highlight the screening results obtained for our exemplary fluorescent tracers based on Clozapine, Amitriptyline and AZD1283.
(§2) HiBiT-GPCR DNA constructs were diluted in 10 mM Tris pH 8 to a final concentration of 0.01 μg/μL, arrayed in 96-well plates and stored at −20 °C. For transfection, HEK293 cells were suspended in Opti-MEM (without phenol red) supplemented with 2% fetal bovine serum (Seradigm) and 100 units/mL penicillin–streptomycin (Gibco) at a final concentration of 220,000 cells/mL and dispensed into white 96-well plates at 90 μL/well. Subsequent transfections and screens were carried using an Agilent Bravo Automated Liquid Handling Platform. First, the 96-well HiBiT DNA arrays were diluted 25-fold in Opti-MEM (without serum or phenol red) to a final concentration of 0.0004 μg/μL and 20 μL of the diluted DNAs were transferred into new 96-well plates. Next, promoterless carrier DNA (1 μg/μL) was diluted 25-fold (0.04 μg/μL) and then dispensed into the diluted arrays at 20 μL/well. Following brief mixing, Viafect transfection reagent (Promega) diluted 16-fold into Opti-MEM was dispensed into the plates at 40 μL/well. After mixing by pipetting, plates were incubated for 10 min on the pipetting station deck. The DNA-transfection reagent complexes were then added to plates containing cells. To facilitate the screen, 10 μL of DNA-transfection reagent complexes were added in duplicates to the top 4 and bottom 4 rows, resulting in two identical 48-well arrays per plate. Plates with transfected cells were incubated for 18–20 h at 37 °C/5% CO2. A screen of each tracer across the entire library using two different concentrations requires duplicate plates of transfected cells. Depending on the number of tracers being screened, transfections can be scaled up using the same ratios. The next day, for each tracer, four 20× screening solutions in tracer dilution buffer (Promega) were prepared: two duplicates at final concentration of 20 μM and two duplicates at a final concentration of 2 μM. A competing unmodified compound was added to one of each duplicate at a final concentration of 400 μM. The four resulting solutions were diluted 4-fold in Opti-MEM without serum or phenol red to generate 5× solutions (5 µM and 0.5 µM tracer +/− 100 μM competing compound). To screen the library, a BioTek MultiFlo FX liquid dispenser was used to dispense 22.5 µL of tracer solution to the top 4 rows and 22.5 µL tracer + competing compound solution to the 4 bottom rows. Plates were briefly mixed on an orbital shaker and incubated for 1.5 h at room temperature. […]

A further assay deals with T2, SSTR5 (Homo sapiens, UniProt P35346).
T2 construct: purchased Promega (in-house HiBiT-GPCR construct library, NanoBRET)
Put plainly: NanoBRET screen HiBiT-SSTR5 in HEK293. It is filed as binding. The procedure:
as §1, §2
In general terms: BRET reads energy transfer from a luciferase to a nearby fluorophore.

T2 sequence (P35346 whole entry): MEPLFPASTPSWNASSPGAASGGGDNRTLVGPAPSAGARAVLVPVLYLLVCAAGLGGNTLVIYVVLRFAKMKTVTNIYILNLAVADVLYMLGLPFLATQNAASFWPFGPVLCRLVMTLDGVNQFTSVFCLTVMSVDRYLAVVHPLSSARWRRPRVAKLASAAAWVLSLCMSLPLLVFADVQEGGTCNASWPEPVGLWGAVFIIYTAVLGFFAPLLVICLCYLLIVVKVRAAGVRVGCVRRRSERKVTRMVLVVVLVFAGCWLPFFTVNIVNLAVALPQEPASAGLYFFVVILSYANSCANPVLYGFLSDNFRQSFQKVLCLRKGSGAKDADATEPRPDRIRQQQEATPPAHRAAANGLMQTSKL

Take `CCCn1c(=O)c2[nH]c(-c3ccc(OCC(=O)NCCNC(=O)CCOCCNC(=O)c4ccc(CNC(=O)CCc5ccc6n5[B-](F)(F)[N+]5=C(c7ccc[nH]7)C=CC5=C6)cc4)cc3)nc2n(CCC)c1=O` [XAC-3-NB590]: the “NanoBRET Fold Response” value came out at 1.01 on GALR3 (GALR3, tracer 0.1μM); 1.04 at GALR3 (GALR3, tracer 1μM); 0.99 at SSTR5 (SSTR5, tracer 0.1μM); 1.01 at SSTR5 (SSTR5, tracer 1μM).

As to `CN(C)CCC=C1c2ccccc2CCc2ccc(C(=O)NCCNC(=O)CCOCCOCCOCCOCCNC(=O)CCc3ccc4n3[B-](F)(F)[N+]3=C(c5ccc[nH]5)C=CC3=C4)cc21` [Amitriptyline-a-2-NB590], the “NanoBRET Fold Response” value on GALR3 (tracer at 0.1μM) is listed as 0.98; at GALR3 (tracer at 1μM), 1.04; on SSTR5 (tracer at 0.1μM) it was 1.00; on SSTR5 (tracer at 1μM), 1.05.

Take `CCOC(=O)c1cc(C#N)c(N2CCC(C(=O)NS(=O)(=O)Cc3ccccc3/C=C/C(=O)NCCNC(=O)CCc3ccc4n3[B-](F)(F)[N+]3=C(c5ccc[nH]5)C=CC3=C4)CC2)nc1C` [AZD1283-1-NB590]: the “NanoBRET Fold Response” value at GALR3 (GALR3, 0.1μM) amounted to 0.91; on GALR3 (GALR3, 1μM) it was 1.00; on SSTR5 (SSTR5, 0.1μM), 1.09; on SSTR5 (SSTR5, 1μM), 1.05.
